The values below come from patent US9776962B2, “Aromatic compounds with GPR40 agonistic activity” (TAKEDA PHARMACEUTICAL COMPANY LIMITED, priority 2013, dated 2017).

T1 sequence (O14842 whole entry): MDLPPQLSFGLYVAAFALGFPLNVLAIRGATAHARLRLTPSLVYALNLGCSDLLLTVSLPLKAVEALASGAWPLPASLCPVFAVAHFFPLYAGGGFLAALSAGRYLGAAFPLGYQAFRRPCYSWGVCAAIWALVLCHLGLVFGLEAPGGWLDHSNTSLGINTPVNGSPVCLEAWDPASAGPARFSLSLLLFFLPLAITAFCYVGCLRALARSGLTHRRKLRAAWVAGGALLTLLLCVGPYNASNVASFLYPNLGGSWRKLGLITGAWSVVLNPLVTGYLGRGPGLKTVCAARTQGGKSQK

The assay addresses T1, human GPR40 (Homo sapiens, UniProt O14842).
T1 construct: expressed in transfected cells
The experiment in a line: Evaluation of human GPR40 agonist activity with increase in intracellular Ca2+ concentration as an index (FLIPR). As to conditions: test compound 1 μM; CHO(dhfr−) cells stably expressing human GPR40; 100% = 10 μM compound of Example 153, 0% = DMSO. The format is cell-based. Here is the method:
Plasmid hGPR40/pAKKO-1.11H for mammalian cells expression, wherein cDNA fragment (SEQ ID NO: 1) encoding the full-length human GPR40 was incorporated into an expression vector pAKKO-1.11H (Biochimica et Biophysica Acta vol. 1219 pp. 251-259 (1994)), was transfected into CHO-dhfr(−) cells (ATCC, CRL-9096) by using Lipofectamine 2000 (Invitrogen:11668-019). After transfection, the limiting dilution-culture method was performed to select clone in selection medium (nucleic acid-free α-MEM (Invitrogen:12561-056)) containing 10% dialyzed bovine serum (Invitrogen:26400-044)). The expression level of human GPR40 mRNA was confirmed by TaqMan PCR (Life Technologies), and the intracellular calcium mobilization activity of GPR40 ligand (γ-linolenic acid) was confirmed by FLIPR (Molecular Devices), and a clone of human GPR40 expressing CHO cells was selected.
Evaluation of Human GPR40 Agonist Activity with Increase in Intracellular Ca^2+ Concentration as an Index
CHO(dhfr−) cells that stably expressed human GPR40 were suspended in MEMα (Nikken Bio Medical Laboratory) containing 10% dialyzed bovine serum (JR Scientific), 10 mM HEPES (Life Technologies), 100 U/mL penicillin, 100 μg/mL streptomycin (Life Technologies), and plated on a 384 well black/clear cell culture plate at 10,000 cells/well. After culture overnight in a CO2 incubator at 37° C., the culture supernatant was removed, and loading buffer [Ca^2+ probe attached to Calcium Kit II-iCellux (DOJINDO) was dissolved in assay buffer (20 mM HEPES, 0.1% fatty acid-free BSA (Sigma-Aldrich), 2.5 mM probenecid (DOJINDO)-containing HESS (Life Technologies))] was added at 30 μL/well. After leaving for 1 hr at room temperature under light shielding, assay buffer containing the test compound at a final concentration of 1 μM was added at 10 μL/well in FLIPR Tetra (Molecular Devices), and the fluorescence amount was successively measured. Human GPR40 agonist activity calculated using an increase in the intracellular Ca^2+ concentration as an index, wherein the activity of 10 μM of the compound of Example 153 was 100%, and the activity when DMSO was added instead of the test compound was 0%.
On to `COc1ccc(C(=O)N(CC(C)C)c2ccc(OC)nc2)c(N2CCC(COc3cc(C(CC(=O)O)C4CC4)ccn3)CC2)c1` (stereo not drawn) [Example 140, 3-cyclopropyl-3-(2-((1-(5-methoxy-2-((6-methoxypyridin-3-yl)(2-methylpropyl)carbamoyl)phenyl)piperidin-4-yl)methoxy)pyridin-4-yl)propanoic acid], for which the activation at 1 µM was determined as 93%. The value for `COc1ccc(C(=O)N(CC(F)(F)F)c2cccc(C)n2)c(N2CCC(COc3cc(C(CC(=O)O)C4CC4)ccn3)CC2)c1` (stereo not drawn) [Example 143, 3-cyclopropyl-3-(2-((1-(5-methoxy-2-((6-methylpyridin-2-yl)(2,2,2-trifluoroethyl)carbamoyl)phenyl)piperidin-4-yl)methoxy)pyridin-4-yl)propanoic acid] was 102%. With `COc1ccc(C(=O)N(CC2(F)CC2)c2ccccn2)c(N2CCC(COc3cc(C(CC(=O)O)C4CC4)ccn3)CC2)c1` (stereo not drawn) [Example 144, 3-cyclopropyl-3-(2-((1-(2-(((1-fluorocyclopropyl)methyl)(pyridin-2-yl)carbamoyl)-5-methoxyphenyl)piperidin-4-yl)methoxy)pyridin-4-yl)propanoic acid], the activation at 1 µM was 79%. Consider `CCC(C)(C)N(C(=O)c1ccc(OC)cc1N1CCC(COc2cc(C(CC(=O)O)C3CC3)ccn2)CC1)c1ccccn1` (stereo not drawn) [Example 145, 3-cyclopropyl-3-(2-((1-(5-methoxy-2-((2-methylbutan-2-yl)(pyridin-2-yl)carbamoyl)phenyl)piperidin-4-yl)methoxy)pyridin-4-yl)propanoic acid], for which the activation at 1 µM is 96%. Compound `COc1ccc(C(=O)N(c2ccccn2)C(C)C)c(N2CCC(COc3cc(C(CC(=O)O)C4CC4)ccn3)CC2)c1` (stereo not drawn) [Example 146, 3-cyclopropyl-3-(2-((1-(5-methoxy-2-(propan-2-yl(pyridin-2-yl)carbamoyl)phenyl)piperidin-4-yl)methoxy)pyridin-4-yl)propanoic acid] came in with an activation at 1 µM of 82%.

The compound `COc1ccc(C(=O)N(CC(C)(F)F)c2cc(C)ccn2)c(N2CCC(COc3cc(C(CC(=O)O)C4CC4)ccn3)CC2)c1` (stereo not drawn) [Example 147, 3-cyclopropyl-3-(2-((1-(2-((2,2-difluoropropyl)(4-methylpyridin-2-yl)carbamoyl)-5-methoxyphenyl)piperidin-4-yl)methoxy)pyridin-4-yl)propanoic acid] came in with an activation at 1 µM of 97%. `COc1ccc(C(=O)N(CC(F)(F)F)c2cc(C)ccn2)c(N2CCC(COc3cc(C(CC(=O)O)C4CC4)ccn3)CC2)c1` (stereo not drawn) [Example 148, 3-cyclopropyl-3-(2-((1-(5-methoxy-2-((4-methylpyridin-2-yl)(2,2,2-trifluoroethyl)carbamoyl)phenyl)piperidin-4-yl)methoxy)pyridin-4-yl)propanoic acid] showed an activation at 1 µM of 104%. With `CCC(C)(C)CN(C(=O)c1ccc(OC)cc1N1CCC(COc2cc(C(CC(=O)O)C3CC3)ccn2)CC1)c1ccccn1` (stereo not drawn) [Example 149, 3-cyclopropyl-3-(2-((1-(2-((2,2-dimethylbutyl)(pyridin-2-yl)carbamoyl)-5-methoxyphenyl)piperidin-4-yl)methoxy)pyridin-4-yl)propanoic acid], the activation at 1 µM was 101%. Turning to `COc1ccc(C(=O)N(CC(C)C)c2ncccc2C)c(N2CCC(COc3cc(C(CC(=O)O)C4CC4)ccn3)CC2)c1` (stereo not drawn) [Example 150, 3-cyclopropyl-3-(2-((1-(5-methoxy-2-((2-methylpropyl)(3-methylpyridin-2-yl)carbamoyl)phenyl)piperidin-4-yl)methoxy)pyridin-4-yl)propanoic acid], the activation at 1 µM amounted to 84%. In turn, `COc1ccc(C(=O)N(c2ccccn2)C2CCC2)c(N2CCC(COc3cc(C(CC(=O)O)C4CC4)ccn3)CC2)c1` (stereo not drawn) [Example 151, 3-(2-((1-(2-(cyclobutyl(pyridin-2-yl)carbamoyl)-5-methoxyphenyl)piperidin-4-yl)methoxy)pyridin-4-yl)-3-cyclopropylpropanoic acid] registered an activation at 1 µM of 87%. The value for `COc1ccc(C(=O)N(CC(C)(C)F)c2cccc(C)n2)c(N2CCC(COc3cc(C(CC(=O)O)C4CC4)ccn3)CC2)c1` (stereo not drawn) [Example 152, 3-cyclopropyl-3-(2-((1-(2-((2-fluoro-2-methylpropyl)(6-methylpyridin-2-yl)carbamoyl)-5-methoxyphenyl)piperidin-4-yl)methoxy)pyridin-4-yl)propanoic acid] was 100%. For `COc1ccc(C(=O)N(CC2(F)CCC2)c2ccccn2)c(N2CCC(COc3cc(C(CC(=O)O)C4CC4)ccn3)CC2)c1` (stereo not drawn) [Example 154, 3-cyclopropyl-3-(2-((1-(2-(((1-fluorocyclobutyl)methyl)(pyridin-2-yl)carbamoyl)-5-methoxyphenyl)piperidin-4-yl)methoxy)pyridin-4-yl)propanoic acid] the value was 100%; for `COCC(C)(C)CN(C(=O)c1ccc(OC)cc1N1CCC(COc2cc(C(CC(=O)O)C3CC3)ccn2)CC1)c1ccccn1` (stereo not drawn) [Example 155, 3-cyclopropyl-3-(2-((1-(5-methoxy-2-((3-methoxy-2,2-dimethylpropyl)(pyridin-2-yl)carbamoyl)phenyl)piperidin-4-yl)methoxy)pyridin-4-yl)propanoic acid], 96%. For `COc1ccc(C(=O)N(CC(C)(C)C)c2ncccn2)c(N2CCC(COc3cc(C(CC(=O)O)C4CC4)ccn3)CC2)c1` (stereo not drawn) [Example 156, 3-cyclopropyl-3-(2-((1-(2-((2,2-dimethylpropyl)(pyrimidin-2-yl)carbamoyl)-5-methoxyphenyl)piperidin-4-yl)methoxy)pyridin-4-yl)propanoic acid], the activation at 1 µM is 98%. For the compound `COc1ccc(C(=O)N(CC(F)F)c2cc(C)ccn2)c(N2CCC(COc3cc(C(CC(=O)O)C4CC4)ccn3)CC2)c1` (stereo not drawn) [Example 157, 3-cyclopropyl-3-(2-((1-(2-((2,2-difluoroethyl)(4-methylpyridin-2-yl)carbamoyl)-5-methoxyphenyl)piperidin-4-yl)methoxy)pyridin-4-yl)propanoic acid], the activation at 1 µM was determined as 96%. In turn, `COc1ccc(C(=O)N(CC(C)C)c2cc(C#N)ccn2)c(N2CCC(COc3cc(C(CC(=O)O)C4CC4)ccn3)CC2)c1` (stereo not drawn) [Example 158, 3-(2-((1-(2-((4-cyanopyridin-2-yl)(2-methylpropyl)carbamoyl)-5-methoxyphenyl)piperidin-4-yl)methoxy)pyridin-4-yl)-3-cyclopropylpropanoic acid] displayed an activation at 1 µM of 96%. The value for `COc1ccc(C(=O)N(CCC(C)C)c2ccccn2)c(N2CCC(COc3cc(C(CC(=O)O)C4CC4)ccn3)CC2)c1` (stereo not drawn) [Example 159, 3-cyclopropyl-3-(2-((1-(5-methoxy-2-((3-methylbutyl)(pyridin-2-yl)carbamoyl)phenyl)piperidin-4-yl)methoxy)pyridin-4-yl)propanoic acid] was 103%; that for `COc1ccc(C(=O)N(CC(C)(C)OC(C)C)c2ccccn2)c(N2CCC(COc3cc(C(CC(=O)O)C4CC4)ccn3)CC2)c1` (stereo not drawn) [Example 160, 3-cyclopropyl-3-(2-((1-(2-((2-isopropoxy-2-methylpropyl)(pyridin-2-yl)carbamoyl)-5-methoxyphenyl)piperidin-4-yl)methoxy)pyridin-4-yl)propanoic acid] was 97%. The value for `COc1ccc(C(=O)N(CC(C)(C)OCC(F)(F)F)c2ccccn2)c(N2CCC(COc3cc(C(CC(=O)O)C4CC4)ccn3)CC2)c1` (stereo not drawn) [Example 161, 3-cyclopropyl-3-(2-((1-(5-methoxy-2-((2-methyl-2-(2,2,2-trifluoroethoxy)propyl)(pyridin-2-yl)carbamoyl)phenyl)piperidin-4-yl)methoxy)pyridin-4-yl)propanoic acid] was 97%; that for `COc1ccc(C(=O)N(CC2CC(F)(F)C2)c2ccccn2)c(N2CCC(COc3cc(C(CC(=O)O)C4CC4)ccn3)CC2)c1` (stereo not drawn) [Example 162, 3-cyclopropyl-3-(2-((1-(2-(((3,3-difluorocyclobutyl)methyl)(pyridin-2-yl)carbamoyl)-5-methoxyphenyl)piperidin-4-yl)methoxy)pyridin-4-yl)propanoic acid] was 99%; that for `COc1ccc(C(=O)N(CC(F)(F)F)c2ccnc(C)c2)c(N2CCC(COc3cc(C(CC(=O)O)C4CC4)ccn3)CC2)c1` (stereo not drawn) [Example 163, 3-cyclopropyl-3-(2-((1-(5-methoxy-2-((2-methylpyridin-4-yl)(2,2,2-trifluoroethyl)carbamoyl)phenyl)piperidin-4-yl)methoxy)pyridin-4-yl)propanoic acid] was 89%.
